Measured values reported in US9623108B2, “Formulation for oral administration with beneficial effects on the cardiovascular system” (ROTTAPHARM S.p.A., priority 2006, dated 2017).

Legend:
[1] = NOAEL, doses repeated daily in an animal; assay type: in vivo; settings: equivalent of the animal NOAEL in humans
HMG-CoA-r = biological target: T1, HMG-CoA-r (Homo sapiens, UniProt P04035); settings: competition with HMG-CoA at HMG-CoA-r; cited from earlier work
T1 sequence (P04035 1-888): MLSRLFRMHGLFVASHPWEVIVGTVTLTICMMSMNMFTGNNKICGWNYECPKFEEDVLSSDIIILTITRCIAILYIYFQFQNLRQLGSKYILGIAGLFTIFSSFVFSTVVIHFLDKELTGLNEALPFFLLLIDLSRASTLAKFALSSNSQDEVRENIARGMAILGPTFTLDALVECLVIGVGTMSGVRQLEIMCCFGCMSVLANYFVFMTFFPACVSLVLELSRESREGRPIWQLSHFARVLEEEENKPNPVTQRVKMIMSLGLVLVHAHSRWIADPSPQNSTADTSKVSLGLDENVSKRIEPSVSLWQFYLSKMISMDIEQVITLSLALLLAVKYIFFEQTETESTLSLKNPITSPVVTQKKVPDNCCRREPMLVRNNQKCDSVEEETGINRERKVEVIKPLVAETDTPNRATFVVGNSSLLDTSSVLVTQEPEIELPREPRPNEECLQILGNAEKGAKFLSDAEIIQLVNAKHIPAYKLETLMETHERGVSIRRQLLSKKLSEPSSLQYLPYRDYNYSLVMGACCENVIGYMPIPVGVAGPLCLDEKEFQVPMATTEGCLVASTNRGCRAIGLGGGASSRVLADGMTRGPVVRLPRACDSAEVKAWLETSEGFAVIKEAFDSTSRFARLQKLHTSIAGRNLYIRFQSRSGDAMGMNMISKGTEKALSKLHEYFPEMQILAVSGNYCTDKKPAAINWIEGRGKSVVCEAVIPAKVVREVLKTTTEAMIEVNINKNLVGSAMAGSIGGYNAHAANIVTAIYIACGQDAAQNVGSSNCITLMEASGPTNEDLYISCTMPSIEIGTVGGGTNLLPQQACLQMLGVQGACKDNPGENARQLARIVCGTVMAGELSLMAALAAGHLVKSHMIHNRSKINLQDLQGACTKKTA

[2] = test system: rabbits rendered hypercholesterolaemic and hypertriglyceridaemic; assay: Rabbits rendered hypercholesterolaemic and hypertriglyceridaemic with atherogenic feed, 3 months treatment, blood lipid analyses; assay type: in vivo, New Zealand White rabbits
Description: The action of the active principles, according to the composition of COMB, was tested and evaluated experimentally on rabbits rendered hypercholesterolaemic and hypertriglyceridaemic with a diet with added cholesterol, powdered egg yolk and lard. Note: all the daily doses used in the treatment groups, described in the experimental section, are about 4 times higher than those stated in the examples of formulation described in a later section. An exception is the group treated with berberine 100 mg/kg, for which the dose of active principle corresponds to about 13 times that contained in the examples of formulations intended for oral administration in humans. […] The difference in posology between animals and humans is perfectly normal in pharmacology, because it is well known that the pathologies induced experimentally in animals are always dramatically and unnaturally more severe than those that occur spontaneously in humans. New Zealand White rabbits of 6-8 weeks and with body weight of 1.8-2.0 kg. The following feeds, in pellets, were provided at a ration of 150 g of feed per day. Water was available ad libitum. ATER: Atherogenic feed, i.e. standard feed for guinea pigs and rabbits according to Sherman, in pellets (Laboratorio Dottori […].) with addition of 10% powdered egg yolk, 10% lard and 1% cholesterol according to Kong et al. [2004]. The substances under investigation were administered by stomach tube, once a day, suspended in 2 ml/kg of carboxymethylcellulose 0.2% (CMC). All the animals were acclimatized in the living quarters at 25±2° C. and relative humidity 55-65%. After 1 week, blood samples were taken in order to obtain the baseline data. The animals were then randomized to the following treatment groups of 10 rabbits each. AT: Controls with feed ATER and with daily administration of 2 ml/kg of CMC by stomach tube. Ber30: Feed AT, with daily administration of berberine 30 mg/kg in 2 ml/kg of CMC, by stomach tube. Ber100: Feed AT, with daily administration of berberine 100 mg/kg in 2 ml/kg of CMC, by stomach tube. Ass (reference association (combination) for lowering blood lipid level): Feed AT, with daily administration of Ass in 2 ml/kg of CMC, by stomach tube. COMB: Feed AT, with daily administration of Ass with addition of 30 mg/kg of berberine in 2 ml/kg of CMC, by stomach tube. The treatments were continued for 3 months. […] These analyses were carried out with suitably validated, conventional laboratory methods. A descriptive statistical analysis was performed using conventional methods of calculation.

[3] = test system: patients who had hypercholesterolaemia and hypertriglyceridaemia; settings: 500 mg berberine in a single dose once a day; cited from earlier work
[4] = test system: hypercholesterolaemic patients; settings: berberine 500 mg b.i.d.; cited from earlier work
[5] = berberine 30 mg/kg/d by stomach tube, not statistically significant
[6] = berberine 100 mg/kg/d by stomach tube, p<0.001

With `CC1=C(/C=C/C(C)=C/C=C/C(C)=C/C=C/C=C(C)/C=C/C=C(C)/C=C/C2=C(C)C(=O)[C@@H](O)CC2(C)C)C(C)(C)C[C@H](O)C1=O` [Ast, 3,3′-dihydroxy-β,β′-carotene-4,4′-dione] the “NOAEL equivalent in humans” value [1] was “more than 80 g”.

In the case of `CC[C@H](C)C(=O)O[C@H]1C[C@@H](C)C=C2C=C[C@H](C)[C@H](CC[C@@H]3C[C@@H](O)CC(=O)O3)[C@H]21` [Monacoline K], the “activity for the enzyme relative to the natural substrate HMG-CoA” value (HMG-CoA-r) is given as 2000 times.

With `COc1ccc2cc3[n+](cc2c1OC)CCc1cc2c(cc1-3)OCO2` [berberine, 5,6-dihydro-9,10-dimethoxybenzo[g]-1,3-benzodioxolo[5,6-a]quinolizinium] the “increase in HDL” value ([2]; berberine 30 mg/kg/d) was 0.48 mmol/L, the “reduction of the increase in LDL caused by AT” value [2, 5] was 13% and the “reduction of the increase in total cholesterol (CT) caused by AT” value [2, 5] was 15%. For the same compound, the “reduction of the increase in blood triglycerides (TG) caused by AT” value ([2]; berberine 30 mg/kg/d by stomach tube, p<0.01) was 43%, the “increase in HDL” value ([2]; berberine 100 mg/kg/d) was 0.53 mmol/L and the “reduction of the increase in LDL caused by AT” value [2, 6] was 89%. The “reduction of the increase in blood triglycerides (TG) caused by AT” value [2, 6] was 66%, the “reduction of the increase in total cholesterol (CT) caused by AT” value [2, 6] was 87% and the hepatic transaminases [3] was “improved”. For the same compound, the “tolerability of the treatment” value [3] was “well tolerated” and the hepatic transaminases [4] was “decrease in hepatic transaminases”.
